Source: patent US4925865A, “Antimycotic agents” (Bayer Aktiengesellschaft, priority 1987, dated 1990)
≈ marks a conversion by molar mass, not a printed value.

Key:
[1] = test system: Trichophyton mentagr.; assay: Antimycotic in vitro activity, serial dilution test, Trichophyton mentagr.; type: cell-based, Trichophyton mentagrophytes; conditions: Sabouraud's test medium, 28-37° C., 96 hours
Description: (§1) The in vitro tests were carried out in the serial dilution test using inocula of microorganisms of approximately 5×10^3 to 10^4 microorganisms/ml of substrate. The nutrient medium used was (a) for dermatophytes and Blastomycetes: Sabouraud's test medium (b) for yeasts: meat extract/dextrose broth. The incubation temperature was 28° C. to 37° C., and the incubation period was 24 to 96 hours with yeasts and 96 hours with dermatophytes and Blastomycetes.

[2] = test system: Microsporum canis; assay: Antimycotic in vitro activity, serial dilution test, Microsporum canis; type: cell-based; conditions: Sabouraud's test medium, 28-37° C., 96 hours
Description: as §1

[3] = test system: Candida albicans; assay: Antimycotic in vitro activity, serial dilution test, Candida albicans; type: cell-based; conditions: meat extract/dextrose broth, 28-37° C., 24 to 96 hours
Description: as §1

[4] = test system: Torulopsis glabrata; assay: Antimycotic in vitro activity, serial dilution test, Torulopsis glabrata; type: cell-based; conditions: Nakaseomyces glabratus; 28-37° C., 24 to 96 hours
Description: as §1

[5] = test system: Aspergillus fumigatus; assay: Antimycotic in vitro activity, serial dilution test, Aspergillus fumigatus; type: cell-based; conditions: 28-37° C.
Description: as §1

[6] = test system: dermatophytes, Blastomycetes and yeasts; assay: Antimycotic in vitro activity, serial dilution test, overall comparison; type: cell-based
Description: as §1

Row | MIC [1] [µg/mL] | MIC [2] [µg/mL] | MIC [3] [µg/mL] | MIC [4] [µg/mL] | MIC [5] [µg/mL] | SMILES | antimycotic activity compared with compounds (A) and (B) [6]
1 | < 1 | 4 (≈ 14.8 µM) | 4 (≈ 14.8 µM) | 4 (≈ 14.8 µM) | 8 (≈ 29.7 µM) | CC(C)(C)C=CC(O)(Cn1cncn1)C1(Cl)CC1 (stereo not shown) [Compound I-38] | better antimycotic activity than the compounds (A) and (B)
2 | < 1 | 4 (≈ 12.3 µM) | 8 (≈ 24.7 µM) | 8 (≈ 24.7 µM) | 2 (≈ 6.17 µM) | OC(C=Cc1ccccc1Cl)(Cn1cncn1)C1(Cl)CC1 (stereo not shown) [Compound I-31] | better antimycotic activity than the compounds (A) and (B)
3 | 8 (≈ 20.1 µM) |  | 4 (≈ 10 µM) | 4 (≈ 10 µM) | 16 (≈ 40.2 µM) | CCCSC1(C(O)(/C=C/c2ccc(Cl)cc2Cl)Cn2cncn2)CC1 (stereo not drawn) [Compound I-3, trans-4-(2,4-dichlorophenyl)-2-(1-propylmercaptocyclopropyl)1-(1,2,4-triazol-1-yl)-but-3-en-2-ol] | better antimycotic activity than the compounds (A) and (B)
4 | 8 (≈ 20.7 µM) |  | 4 (≈ 10.4 µM) | 16 (≈ 41.4 µM) | 16 (≈ 41.4 µM) | CCSC1(C(O)(CCc2ccc(Cl)cc2Cl)Cn2cncn2)CC1 (stereo not shown) [Compound I-9] | better antimycotic activity than the compounds (A) and (B)
5 | < 1 | 2 (≈ 5.44 µM) | < 1 | 2 (≈ 5.44 µM) | < 1 | OC(CCc1ccc(-c2ccccc2)cc1)(Cn1cncn1)C1(Cl)CC1 (stereo not shown) [Compound I-25] | better antimycotic activity than the compounds (A) and (B)
6 | < 1 | 4 (≈ 13.8 µM) | 4 (≈ 13.8 µM) | 8 (≈ 27.6 µM) | 2 (≈ 6.9 µM) | OC(C=Cc1ccccc1)(Cn1cncn1)C1(Cl)CC1 (stereo not shown) [Compound I-32] | better antimycotic activity than the compounds (A) and (B)
7 | < 1 | 2 (≈ 6.54 µM) | 4 (≈ 13.1 µM) | 2 (≈ 6.54 µM) | < 1 | Cc1ccc(CCC(O)(Cn2cncn2)C2(Cl)CC2)cc1 (stereo not shown) [Compound I-20] | better antimycotic activity than the compounds (A) and (B)
8 | < 1 | 8 (≈ 19.3 µM) | 2 (≈ 4.83 µM) | 4 (≈ 9.66 µM) | 64 (≈ 155 µM) | OC(CCc1ccc(Cl)cc1)(Cn1cncn1)C1(SCc2ccccc2)CC1 (stereo not shown) [Compound I-10] | better antimycotic activity than the compounds (A) and (B)
9 | < 1 | < 1 | 8 (≈ 20.8 µM) | < 1 | 4 (≈ 10.4 µM) | CCSC1(C(O)(C=Cc2ccc(Cl)cc2Cl)Cn2cncn2)CC1 (stereo not shown) [Compound I-16] | better antimycotic activity than the compounds (A) and (B)
10 | 2 (≈ 5.23 µM) |  | < 1 | 2 (≈ 5.23 µM) | 4 (≈ 10.5 µM) | CC(C)(CCC(O)(Cn1cncn1)C1(Cl)CC1)Cc1ccc(Cl)cc1 (stereo not shown) [Compound I-17] | better antimycotic activity than the compounds (A) and (B)
11 | < 1 | < 1 | < 1 | < 1 | < 1 | Cc1ccc(C=CC(O)(Cn2cncn2)C2(Cl)CC2)cc1 (stereo not shown) [Compound I-28] | better antimycotic activity than the compounds (A) and (B)
12 | 2 (≈ 6.76 µM) |  | 16 (≈ 54.1 µM) | 16 (≈ 54.1 µM) | 2 (≈ 6.76 µM) | OC(C=CC1CCCCC1)(Cn1cncn1)C1(Cl)CC1 (stereo not shown) [Compound I-39] | better antimycotic activity than the compounds (A) and (B)
13 | 2 (≈ 5.47 µM) |  | 8 (≈ 21.9 µM) | 32 (≈ 87.4 µM) | 4 (≈ 10.9 µM) | CC(C)SC1(C(O)(CCc2ccc(Cl)cc2)Cn2cncn2)CC1 (stereo not shown) [Compound I-8] | better antimycotic activity than the compounds (A) and (B)
